{
  "source": "patent US6894003B2",
  "about": "“Enhancement of the activity of carotenoid biosynthesis inhibitor herbicides” (BASF Aktiengesellschaft, priority 2000, dated 2005)",
  "assay_type_in_all_cases": "in vivo",
  "key": {"[1]": {"tested_on": "Triticum aestivum (variety Kanzler)", "assay": "Crop phytotoxicity, winter wheat (variety Kanzler)", "conditions": "assessed visually", "text": "(§1) Seeds of the monocotyledonous and dicotyledonous test plants are separately mixed with potting soil and planted on top of approximately one inch of soil in separate pint cups. After planting, the cups are subjected to the following treatments:\n(§2) Technical TTP (treatment H) is applied as a dispersion in acetone using a single-nozzle overhead track pneumatic sprayer, while granular or powder formulations (treatments I-K) are applied by shaking the solid granules or powder directly and evenly onto the soil surface.\n(§3) The treated cups are then placed on greenhouse benches, watered and cared for in accordance with conventional greenhouse procedures. Twenty days after treatment (DAT), the seedling plants are examined, and the % weed control as compared to untreated check is recorded (Table I)."}, "Setaria viridis": {"tested_on": "Setaria viridis", "assay": "Greenhouse pre-emergence weed control, green foxtail", "conditions": "vs untreated check", "text": "as §1, §2, §3"}, "[2]": {"tested_on": "Matricaria inodora vulgare", "assay": "Greenhouse pre-emergence weed control, Matricaria", "conditions": "vs untreated check", "text": "as §1, §2, §3"}, "Papaver rhoeas": {"tested_on": "Papaver rhoeas", "assay": "Greenhouse pre-emergence weed control, poppy", "conditions": "vs untreated check", "text": "as §1, §2, §3"}, "Alopecurus myosuroides": {"tested_on": "Alopecurus myosuroides", "assay": "Greenhouse pre-emergence weed control, blackgrass", "conditions": "for Weed Control (20 DAT) ALOMY: vs untreated check", "text": "as §1, §2, §3"}, "[3]": {"tested_on": "Hordeum vulgare (variety Mammut)", "assay": "Crop phytotoxicity, winter barley (variety Mammut)", "conditions": "assessed visually", "text": "as §1, §2\nThe treated cups are then placed on greenhouse benches, watered and cared for in accordance with conventional greenhouse procedures. […]"}, "Galium aparine": {"tested_on": "Galium aparine", "assay": "Greenhouse pre-emergence weed control, Galium", "conditions": "for Weed Control (20 DAT) GALAP: vs untreated check", "text": "as §1, §2, §3"}, "Veronica persica": {"tested_on": "Veronica persica", "assay": "Greenhouse pre-emergence weed control, Veronica", "conditions": "vs untreated check", "text": "as §1, §2, §3"}, "Lolium perenne": {"tested_on": "Lolium perenne", "assay": "Greenhouse pre-emergence weed control, ryegrass", "conditions": "vs untreated check", "text": "as §1, §2, §3"}},
  "data": [
    {"smiles": "FC(F)(F)c1ccc(-c2nccc(Oc3cccc(C(F)(F)F)c3)n2)cc1", "note": "[H, 4-(3-trifluoromethylphenoxy)-2-(4-trifluoromethylphenyl)-pyrimidine]", "values": [
      {"measurement": "Crop Phytotoxicity 11 DAT TRZAWK", "setting": "[1]; 0.060 kg/ha", "result": 1.0},
      {"measurement": "Crop Phytotoxicity 20 DAT TRZAWK", "setting": "[1]; 0.060 kg/ha", "result": 0.5},
      {"measurement": "Crop Phytotoxicity 11 DAT TRZAWK", "setting": "[1]; 0.120 kg/ha", "result": 2.5},
      {"measurement": "Crop Phytotoxicity 20 DAT TRZAWK", "setting": "[1]; 0.120 kg/ha", "result": 1.0},
      {"measurement": "Crop Phytotoxicity 11 DAT TRZAWK", "setting": "[1]; 0.240 kg/ha", "result": 6.5},
      {"measurement": "Crop Phytotoxicity 20 DAT TRZAWK", "setting": "[1]; 0.240 kg/ha", "result": 4.5},
      {"measurement": "Crop Phytotoxicity 11 DAT TRZAWK", "setting": "[1]; 0.480 kg/ha", "result": 14.0},
      {"measurement": "Crop Phytotoxicity 20 DAT TRZAWK", "setting": "[1]; 0.480 kg/ha", "result": 10.0},
      {"measurement": "Weed Control (20 DAT) SETVI", "setting": "Setaria viridis; 0.060 kg/ha", "result": 96.5, "unit": "%"},
      {"measurement": "Weed Control (20 DAT) SETVI", "setting": "Setaria viridis; 0.120 kg/ha", "result": 100.0, "unit": "%"},
      {"measurement": "Weed Control (20 DAT) SETVI", "setting": "Setaria viridis; 0.240 kg/ha", "result": 100.0, "unit": "%"},
      {"measurement": "Weed Control (20 DAT) SETVI", "setting": "Setaria viridis; 0.480 kg/ha", "result": 100.0, "unit": "%"},
      {"measurement": "Weed Control (20 DAT) MATIN", "setting": "[2]; 0.060 kg/ha", "result": 98.5, "unit": "%"},
      {"measurement": "Weed Control (20 DAT) MATIN", "setting": "[2]; 0.120 kg/ha", "result": 99.0, "unit": "%"},
      {"measurement": "Weed Control (20 DAT) MATIN", "setting": "[2]; 0.240 kg/ha", "result": 99.0, "unit": "%"},
      {"measurement": "Weed Control (20 DAT) MATIN", "setting": "[2]; 0.480 kg/ha", "result": 100.0, "unit": "%"},
      {"measurement": "Weed Control (20 DAT) PAPRH", "setting": "Papaver rhoeas; 0.060 kg/ha", "result": 99.5, "unit": "%"},
      {"measurement": "Weed Control (20 DAT) PAPRH", "setting": "Papaver rhoeas; 0.120 kg/ha", "result": 99.5, "unit": "%"},
      {"measurement": "Weed Control (20 DAT) PAPRH", "setting": "Papaver rhoeas; 0.240 kg/ha", "result": 100.0, "unit": "%"},
      {"measurement": "Weed Control (20 DAT) PAPRH", "setting": "Papaver rhoeas; 0.480 kg/ha", "result": 100.0, "unit": "%"},
      {"measurement": "Weed Control (20 DAT) ALOMY", "setting": "Alopecurus myosuroides; 0.060 kg/ha", "result": 22.5, "unit": "%"},
      {"measurement": "Weed Control (20 DAT) ALOMY", "setting": "Alopecurus myosuroides; 0.120 kg/ha", "result": 77.5, "unit": "%"},
      {"measurement": "Weed Control (20 DAT) ALOMY", "setting": "Alopecurus myosuroides; 0.240 kg/ha", "result": 98.5, "unit": "%"},
      {"measurement": "Weed Control (20 DAT) ALOMY", "setting": "Alopecurus myosuroides; 0.480 kg/ha", "result": 99.0, "unit": "%"},
      {"measurement": "Rate required to control Alopecurus", "setting": "Alopecurus myosuroides; greenhouse", "result": 240, "unit": "g/ha"},
      {"measurement": "Crop Phytotoxicity 11 DAT HORVWM", "setting": "[3]; 0.060 kg/ha", "result": 20.0},
      {"measurement": "Crop Phytotoxicity 20 DAT HORVWM", "setting": "[3]; 0.060 kg/ha", "result": 15.0},
      {"measurement": "Crop Phytotoxicity 11 DAT HORVWM", "setting": "[3]; 0.120 kg/ha", "result": 40.0},
      {"measurement": "Crop Phytotoxicity 20 DAT HORVWM", "setting": "[3]; 0.120 kg/ha", "result": 25.0},
      {"measurement": "Crop Phytotoxicity 11 DAT HORVWM", "setting": "[3]; 0.240 kg/ha", "result": 42.5},
      {"measurement": "Crop Phytotoxicity 20 DAT HORVWM", "setting": "[3]; 0.240 kg/ha", "result": 40.0},
      {"measurement": "Crop Phytotoxicity 11 DAT HORVWM", "setting": "[3]; 0.480 kg/ha", "result": 47.5},
      {"measurement": "Crop Phytotoxicity 20 DAT HORVWM", "setting": "[3]; 0.480 kg/ha", "result": 45.0},
      {"measurement": "Weed Control (20 DAT) GALAP", "setting": "Galium aparine; 0.060 kg/ha", "result": 67.5, "unit": "%"},
      {"measurement": "Weed Control (20 DAT) GALAP", "setting": "Galium aparine; 0.120 kg/ha", "result": 72.5, "unit": "%"},
      {"measurement": "Weed Control (20 DAT) GALAP", "setting": "Galium aparine; 0.240 kg/ha", "result": 98.0, "unit": "%"},
      {"measurement": "Weed Control (20 DAT) GALAP", "setting": "Galium aparine; 0.480 kg/ha", "result": 98.0, "unit": "%"},
      {"measurement": "Rate required to control Galium", "setting": "Galium aparine; greenhouse", "result": 240, "unit": "g/ha"},
      {"measurement": "Weed Control (20 DAT) VERPE", "setting": "Veronica persica; 0.060 kg/ha", "result": 99.5, "unit": "%"},
      {"measurement": "Weed Control (20 DAT) VERPE", "setting": "Veronica persica; 0.120 kg/ha", "result": 100.0, "unit": "%"},
      {"measurement": "Weed Control (20 DAT) VERPE", "setting": "Veronica persica; 0.240 kg/ha", "result": 100.0, "unit": "%"},
      {"measurement": "Weed Control (20 DAT) VERPE", "setting": "Veronica persica; 0.480 kg/ha", "result": 100.0, "unit": "%"},
      {"measurement": "Weed Control (20 DAT) LOLPE", "setting": "Lolium perenne; 0.060 kg/ha", "result": 91.5, "unit": "%"},
      {"measurement": "Weed Control (20 DAT) LOLPE", "setting": "Lolium perenne; 0.120 kg/ha", "result": 98.5, "unit": "%"},
      {"measurement": "Weed Control (20 DAT) LOLPE", "setting": "Lolium perenne; 0.240 kg/ha", "result": 99.0, "unit": "%"},
      {"measurement": "Weed Control (20 DAT) LOLPE", "setting": "Lolium perenne; 0.480 kg/ha", "result": 99.0, "unit": "%"}
    ]}
  ]
}
